Experimental data taken from the supplement of paper PMC10307832.

How the values were obtained:
Assay in all cases: relative viability (nuclei count vs DMSO), 5 days (fraction); higher = more cells survive
AZ3146 + Alpelisib = compound: CN1CCC(CC1)OC2=CC(=C(C=C2)NC3=NC=C4C(=N3)N(C(=O)N4C)C5CCCC5)OC [AZ3146] + Cc1nc(NC(=O)N2CCC[C@H]2C(N)=O)sc1-c1ccnc(C(C)(C)C(F)(F)F)c1 [Alpelisib] (partner 2 µM)
In short: (§1)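 After 5 days of treatment, lung cancer cells in 1536-well plates were fixed and stained in a single step (final 0.05% Triton X-100, 1% formaldehyde, 1 ug/ml Hoechst) and their nuclei counted on 4× images. Treatment had been applied by pin tool the day after seeding as one drug alone or as a fixed anchor-drug dose with five library-drug doses (not always all listed) in √10 steps. Relative viability is the nuclei count of treated wells divided by that of vehicle wells, and values are medians of duplicate plates.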

AZ3146 + Lapatinib = compound: CN1CCC(CC1)OC2=CC(=C(C=C2)NC3=NC=C4C(=N3)N(C(=O)N4C)C5CCCC5)OC [AZ3146] + CS(=O)(=O)CCNCc1ccc(-c2ccc3ncnc(Nc4ccc(OCc5cccc(F)c5)c(Cl)c4)c3c2)o1 [Lapatinib] (partner 2 µM)
In short: as §1

GSK-J4 + Pictilisib = compound: CCOC(=O)CCNc1cc(N2CCc3ccccc3CC2)nc(-c2ccccn2)n1 [GSK-J4] + CS(=O)(=O)N1CCN(Cc2cc3nc(-c4cccc5[nH]ncc45)nc(N4CCOCC4)c3s2)CC1 [Pictilisib] (partner 1 µM)
In short: as §1

GSK-J4 + Lapatinib = compound: CCOC(=O)CCNc1cc(N2CCc3ccccc3CC2)nc(-c2ccccn2)n1 [GSK-J4] + CS(=O)(=O)CCNCc1ccc(-c2ccc3ncnc(Nc4ccc(OCc5cccc(F)c5)c(Cl)c4)c3c2)o1 [Lapatinib] (partner 2 µM)
In short: as §1

Cell Line	relative viability (AZ3146 + Alpelisib; first compound 0.08 µM)	relative viability (AZ3146 + Alpelisib; first compound 0.253 µM)	relative viability (AZ3146 + Alpelisib; first compound 0.8 µM)	relative viability (AZ3146 + Alpelisib; first compound 2.53 µM)	relative viability (AZ3146 + Alpelisib; first compound 8 µM)	relative viability (AZ3146 + Lapatinib; first compound 0.08 µM)	relative viability (AZ3146 + Lapatinib; first compound 0.253 µM)	relative viability (AZ3146 + Lapatinib; first compound 0.8 µM)	relative viability (AZ3146 + Lapatinib; first compound 2.53 µM)	relative viability (AZ3146 + Lapatinib; first compound 8 µM)	relative viability (GSK-J4 + Pictilisib; first compound 0.5 µM)	relative viability (GSK-J4 + Pictilisib; first compound 1.581 µM)	relative viability (GSK-J4 + Pictilisib; first compound 5 µM)	relative viability (GSK-J4 + Pictilisib; first compound 15.81 µM)	relative viability (GSK-J4 + Pictilisib; first compound 50 µM)	relative viability (GSK-J4 + Lapatinib; first compound 0.5 µM)	relative viability (GSK-J4 + Lapatinib; first compound 1.581 µM)	relative viability (GSK-J4 + Lapatinib; first compound 5 µM)	relative viability (GSK-J4 + Lapatinib; first compound 15.81 µM)	relative viability (GSK-J4 + Lapatinib; first compound 50 µM)
HCC-827	1.02	0.976	1.08	0.921	0.968	0.155	0.191	0.175	0.237	0.191	0.945	1.13	1.14	0.949	1.03	0.197	0.229	0.207	0.212	0.16
IA-LM	0.638	0.627	0.864	0.714	0.763	–	0.955	0.718	0.72	0.49	0.376	0.202	0.489	0.251	0.0942	0.767	0.598	0.862	0.624	0.0952
NCI-H3122	0.68	0.683	0.702	0.872	0.775	1.09	1.04	0.952	1	1.02	0.547	0.63	0.785	0.557	0.382	0.966	0.989	1	0.964	0.911
RERF-LC-KJ	0.805	0.834	0.685	0.888	0.747	0.816	0.889	0.839	0.804	0.84	0.465	0.459	0.639	0.635	0.434	0.843	0.802	0.749	0.788	0.734
NCI-H1703	0.374	0.34	0.326	0.437	0.29	1.16	1.26	0.953	0.892	0.372	0.254	0.259	0.232	0.195	0.275	0.937	0.912	0.84	1.11	0.695
HCC-15	0.939	0.899	0.864	0.822	0.893	0.873	0.819	0.896	0.857	0.832	0.743	0.353	0.784	0.666	0.473	0.827	0.436	0.724	0.754	0.644
NCI-H1666	0.739	0.848	0.962	0.956	0.841	0.681	0.669	0.694	0.891	0.536	0.325	–	0.419	0.603	0.364	0.576	–	0.7	0.567	0.382
NCI-H1395	1.08	1.18	0.998	0.994	1.26	0.853	0.915	0.997	1.19	0.999	0.578	0.524	0.544	0.573	0.518	1.22	0.955	0.759	0.883	0.648
SK-LU-1	0.892	1.05	1.15	1.23	0.571	0.803	0.972	0.825	1.13	0.697	0.565	0.543	0.483	0.512	0.408	0.758	0.776	0.668	0.616	0.585
NCI-H1299	1	1.01	1.02	1.07	1.08	0.892	0.97	0.985	0.958	0.787	0.733	0.802	0.849	0.705	0.327	0.861	0.924	0.851	0.953	0.875
NCI-H1563	0.924	0.87	1	0.927	0.882	0.695	0.881	0.951	0.927	0.873	0.695	0.719	0.62	0.709	0.619	0.821	0.621	0.784	0.834	0.892
HOP-62	0.896	0.96	0.796	1.07	0.832	0.958	0.975	0.941	0.846	1.06	0.735	0.322	0.762	0.76	0.387	0.701	0.689	0.846	1.02	0.86
NCI-H1651	0.879	1.02	0.936	1.1	0.958	0.757	0.854	0.815	0.921	0.636	0.578	0.416	0.668	0.639	0.389	0.84	0.779	0.814	0.863	0.839
HCC-366	0.357	0.379	0.419	0.433	0.393	1	1.1	1.01	0.964	0.693	0.125	–	0.137	0.181	0.122	0.969	0.786	–	0.937	0.602
EMC-BAC-2	0.718	0.718	0.768	0.743	0.84	0.85	0.845	0.954	0.954	0.987	0.627	0.597	0.423	0.598	0.52	0.925	0.928	0.802	0.824	0.806
NCI-H2228	0.694	0.812	0.679	0.705	0.603	1.08	1.13	1.21	1.23	0.889	0.337	0.304	0.539	0.389	0.47	1.11	0.598	1.17	0.943	0.938
